Assay results taken from PMC7933930, “Development of a small molecule that corrects misfolding and increases secretion of Z α1‐antitrypsin” (EMBO Molecular Medicine, 2021).

Experiments:
human hepatocytes = test: Hepatocyte clearance, human; type: in vitro ADME
Protocol: Williams E media supplemented with 2 mM L‐glutamine and 25 mM HEPES and test compound (final compound concentration 0.5 µM; final DMSO concentration 0.25% v/v) were preincubated at 37°C prior to the addition of a suspension of cryopreserved pooled hepatocytes (final cell density 0.5 × 10^6 viable cells/ml) to initiate the reaction. The final incubation volume was 500 µl. The reactions were stopped by transferring 50 µl of incubate to 100 µl acetonitrile containing internal standard at the appropriate time points (0, 5, 10, 20, 40 and 60 min, 0, 10, 20, 40, 60 and 120 min or 0, 20, 40, 60, 120 and 240 min). The control (lysed cells or vehicle) was incubated for 60, 120 or 240 min only. The termination plates were centrifuged at 2,500 rpm at 4°C for 30 min to precipitate the protein. Following protein precipitation, the sample supernatants were analysed by LC‐MS/MS. From a plot of loge peak area ratio (compound peak area/internal standard peak area) against time, the gradient of the line was determined and half‐life (t½) and intrinsic clearance (CLint) were calculated.

Adrenergic α1B = Adrenergic α1B (Homo sapiens, UniProt P35368); test: Off‐target panel: Adrenergic α1B (DRX); type: cell-based
Adrenergic α1B, sequence (P35368 whole entry): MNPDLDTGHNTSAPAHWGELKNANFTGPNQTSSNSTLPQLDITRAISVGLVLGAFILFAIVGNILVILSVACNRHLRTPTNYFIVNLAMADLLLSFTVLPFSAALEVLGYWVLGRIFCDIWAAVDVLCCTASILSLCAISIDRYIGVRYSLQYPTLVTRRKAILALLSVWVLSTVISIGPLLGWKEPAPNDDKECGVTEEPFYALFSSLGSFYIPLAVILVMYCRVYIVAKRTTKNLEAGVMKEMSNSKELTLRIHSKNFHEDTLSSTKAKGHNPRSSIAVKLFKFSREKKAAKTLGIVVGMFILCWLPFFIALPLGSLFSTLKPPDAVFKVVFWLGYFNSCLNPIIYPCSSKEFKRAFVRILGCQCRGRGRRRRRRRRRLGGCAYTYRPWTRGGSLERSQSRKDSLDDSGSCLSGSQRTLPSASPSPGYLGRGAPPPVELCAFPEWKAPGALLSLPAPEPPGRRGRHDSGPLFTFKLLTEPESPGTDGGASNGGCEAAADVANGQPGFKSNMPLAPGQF
Protocol: (§1) GSK716 selectivity and PK properties were profiled in order to investigate the suitability of GSK716 for progression into in vivo studies and the potential for taking it forward as a clinical candidate for testing in humans. Since GSK716 results in loss of inhibitory activity of α1‐antitrypsin, the effect of the compound was assessed on other closely related serpins. […] Furthermore, there were no off‐target effects in a panel of assays considered predictive of known safety liabilities that precluded further development of GSK716 (Table EV1).

Aurora B (STK12) = Aurora B (STK12) (Homo sapiens, UniProt Q96GD4); test: Off‐target panel: Aurora B (STK12); type: biochemical; settings: Inhibition, read-out: Mean (PXC50)
Aurora B (STK12), sequence (Q96GD4 whole entry, species assumed): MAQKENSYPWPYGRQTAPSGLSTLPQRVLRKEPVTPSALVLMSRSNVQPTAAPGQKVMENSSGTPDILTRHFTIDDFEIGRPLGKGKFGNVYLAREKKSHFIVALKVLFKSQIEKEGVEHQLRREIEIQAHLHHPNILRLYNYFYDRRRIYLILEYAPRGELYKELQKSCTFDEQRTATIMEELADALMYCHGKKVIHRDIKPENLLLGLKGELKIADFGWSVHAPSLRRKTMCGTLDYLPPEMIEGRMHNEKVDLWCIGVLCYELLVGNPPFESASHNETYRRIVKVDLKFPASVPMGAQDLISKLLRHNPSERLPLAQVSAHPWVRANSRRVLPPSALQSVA
Protocol: as §1

Cycloxygenase2 (COX2) = Cycloxygenase2 (COX2) (Homo sapiens, UniProt P35354); test: Off‐target panel: Cycloxygenase2 (COX2); type: biochemical; settings: Inhibition, read-out: Mean (PXC50)
Cycloxygenase2 (COX2), sequence (P35354 18-604): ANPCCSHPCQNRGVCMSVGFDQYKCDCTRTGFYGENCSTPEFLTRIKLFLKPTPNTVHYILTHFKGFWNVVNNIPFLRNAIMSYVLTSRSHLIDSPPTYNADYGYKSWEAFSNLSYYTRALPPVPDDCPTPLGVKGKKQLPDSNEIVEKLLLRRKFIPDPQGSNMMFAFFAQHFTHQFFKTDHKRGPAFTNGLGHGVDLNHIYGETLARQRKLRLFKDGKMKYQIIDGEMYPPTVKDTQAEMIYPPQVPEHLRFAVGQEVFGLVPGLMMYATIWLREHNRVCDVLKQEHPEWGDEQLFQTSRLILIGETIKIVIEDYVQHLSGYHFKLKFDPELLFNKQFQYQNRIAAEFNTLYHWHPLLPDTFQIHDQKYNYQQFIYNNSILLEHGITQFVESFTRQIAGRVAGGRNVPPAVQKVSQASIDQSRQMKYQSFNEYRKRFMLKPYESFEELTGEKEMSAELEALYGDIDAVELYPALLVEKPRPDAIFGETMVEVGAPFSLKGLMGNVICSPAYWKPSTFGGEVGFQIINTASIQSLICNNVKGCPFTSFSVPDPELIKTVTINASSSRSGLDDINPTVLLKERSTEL
Protocol: as §1

GABA-A = test: Off‐target panel: GABA-A (Barracuda); type: cell-based
Protocol: as §1

Serotonin 5HT1B = Serotonin 5HT1B (Homo sapiens, UniProt P28222); test: Off‐target panel: Serotonin 5HT1B (DRX); type: cell-based
Serotonin 5HT1B, sequence (P28222 whole entry): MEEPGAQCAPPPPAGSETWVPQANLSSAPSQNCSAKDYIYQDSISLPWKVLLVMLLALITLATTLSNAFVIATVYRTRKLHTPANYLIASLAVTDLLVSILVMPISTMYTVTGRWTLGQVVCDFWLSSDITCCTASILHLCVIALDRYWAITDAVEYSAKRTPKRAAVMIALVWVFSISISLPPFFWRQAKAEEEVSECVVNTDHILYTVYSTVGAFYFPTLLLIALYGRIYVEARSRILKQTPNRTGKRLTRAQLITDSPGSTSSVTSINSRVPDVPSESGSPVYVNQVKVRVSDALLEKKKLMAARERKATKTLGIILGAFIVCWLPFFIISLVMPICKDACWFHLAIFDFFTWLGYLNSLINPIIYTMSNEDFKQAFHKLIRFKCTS
Protocol: as §1

Z α1‐antitrypsin = Z α1‐antitrypsin (Homo sapiens, UniProt P01009, E366K); test: Association kinetics by intrinsic tryptophan fluorescence (stopped flow), Z α1‐antitrypsin; type: binding; design: purified from the plasma of Z α1‐antitrypsin homozygotes; from tissue; host or cells: human plasma of Z α1-antitrypsin homozygotes
Z α1‐antitrypsin, sequence (P01009 25-418 E366K): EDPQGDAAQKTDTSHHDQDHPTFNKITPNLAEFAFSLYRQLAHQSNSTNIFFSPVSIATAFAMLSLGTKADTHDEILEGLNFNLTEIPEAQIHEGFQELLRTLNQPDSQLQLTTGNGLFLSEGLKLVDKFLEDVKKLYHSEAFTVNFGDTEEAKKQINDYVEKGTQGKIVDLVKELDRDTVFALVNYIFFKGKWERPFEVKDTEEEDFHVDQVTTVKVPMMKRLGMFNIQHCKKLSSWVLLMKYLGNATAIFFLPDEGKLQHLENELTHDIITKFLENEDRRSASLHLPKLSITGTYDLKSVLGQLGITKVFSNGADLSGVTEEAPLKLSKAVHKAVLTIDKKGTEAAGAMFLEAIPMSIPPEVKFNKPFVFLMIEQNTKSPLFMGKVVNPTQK
From the text: The shape of the curves and native mass spectrometry (not shown) are consistent with a single high‐affinity compound binding site. No binding of the fluorescent derivative to polymers of Z α1‐antitrypsin was observed, indicating conformational selectivity for the monomeric protein (Fig 1D). The rate of interaction of the compound with the target was monitored through changes in intrinsic tryptophan fluorescence (Dafforn et al, 1999); this property was used to determine the second‐order association rate constants for GSK716 binding to Z (4.1 × 10^4 M^−1 s^−1) and M α1‐antitrypsin (2.1 × 10^2 M^−1 s^−1; Fig 1E and F). […] Therefore, the selectivity of the compound for Z over M α1‐antitrypsin is dominated by the difference in the rate of association rather than dissociation.
Kinetic parameters of GSK716 binding to M, Z, S (Glu264Val) and Baghdad (Ala336Pro) (Haq et al, 2016) α1‐antitrypsin were measured by detecting intrinsic tryptophan fluorescence of the protein (excitation at 280 nm and detection of emission at 320 nm) on a stopped flow apparatus (Applied Photophysics) (Kim & Yu, 1996; Dafforn et al, 1999). A competition assay for binding to M α1‐antitrypsin and Z α1‐antitrypsin and Z α1‐antitrypsin polymers (Lomas et al, 1993; Irving et al, 2011; Haq et al, 2013), based on an Alexa488‐labelled analogue of GSK716 (A488‐GSK716), was used to determine the binding affinity of test compounds.

## CCC[C@@H](NC(=O)c1cccc2c1CC(=O)N2)[C@@H](O)c1cccc(F)c1C [GSK716]
Human hepatocytes
  metabolic clearance in human hepatocytes: 0.31 ml/min/g tissue
Adrenergic α1B
  IC50: > 25.1 µM
Aurora B (STK12)
  IC50: > 31.6 µM
Cycloxygenase2 (COX2)
  IC50: > 100 µM
GABA-A; Agonist
  Mean (PXC50): <4
GABA-A; Antagonist
  Mean (PXC50): <4
GABA-A; Pos Mod
  Mean (PXC50): <4
Serotonin 5HT1B
  EC50: > 100 µM
  IC50: > 100 µM
Z α1‐antitrypsin; 10 µM GSK716, 0.2 mg/ml protein
  time of change in Z α1‐antitrypsin fluorescence on association (faster than dead‐time of the apparatus): < 10 s
Z α1‐antitrypsin; Z α1‐antitrypsin, calculated from association rate constant and affinity, read-out: first‐order dissociation rate constant
  koff: 6.1e-05 s⁻¹
Z α1‐antitrypsin; Z α1‐antitrypsin, read-out: second‐order association rate constant
  kon: 41000 M⁻¹ s⁻¹
